Columns and labels:
Type in all cases: cell-based, human
LNCaP cells = assay: Apoptosis PCR array (96 genes) in LNCaP cells
Experimental: The properties of ADT that induce immunogenic modulation and sensitize prostate tumor cells to immune-mediated attack are novel and have not been previously described. It was hypothesized that modulation of apoptotic genes might be part of the mechanism of action of ADT-induced CTL sensitization. […] In particular, gene expression was assessed using an apoptosis PCR array (SA Biosciences, Valencia, Calif.) as per the manufacturer's instructions. RT-PCR was performed on the 7300 Real-Time PCR System (Applied Biosystems, Carlsbad, Calif.). Where indicated, values were calculated as expression relative to GAPDH, as previously described (Ardiani et al., Cancer Res., 74(7): 1945-1957 (2014))

ZR75-1 cells = assay: CTL assay after tamoxifen, ZR75-1 targets; conditions: ZR75-1 (ER+); 1 μM, 72 hours; CEA-specific or MUC-1 specific CTLs; E:T 30:1
Experimental: (§1) To determine sensitivity to immune-mediated killing, breast cancer cells treated with vehicle or 1 μM tamoxifen for 72 hours and then used as targets in a CTL assay using CEA-specific or MUC-1 specific CTLs as effector cells at an E:T ratio of 30:1.

[1] = system: ZR75-1, MCF, BT549 and HCC1806 cells; assay: Viability of breast cancer cells treated with tamoxifen; conditions: 1 μM
Experimental: ZR75-1 (ER+PR+Her2+), MCF (ER+PR+Her2−), BT549 (ER−PR−Her2−), and HCC1806 (ER−PR−Her2−) cells were treated with vehicle or 1 μM tamoxifen to replicate intratumoral concentrations. FIGS. 12A-12D illustrate the fold increase in cell number following treatment. Viability never diminished more than 10% at any given time point.

BT549 cells = assay: CTL assay after tamoxifen, BT549 targets; conditions: BT549 (ER−); 1 μM, 72 hours; E:T 30:1
Experimental: as §1

HCC1806 cells = assay: CTL assay after tamoxifen, HCC1806 targets; conditions: HCC1806 (ER−); 1 μM, 72 hours; E:T 30:1
Experimental: as §1

MCF-7 cells = assay: CTL assay after tamoxifen, MCF-7 targets; conditions: MCF-7 (ER+); 1 μM, 72 hours; CEA-specific or MUC-1 specific CTLs; E:T 30:1
Experimental: as §1

[2] = apoptosis PCR array, negative = down-regulated

| SMILES | number of 96 apoptosis genes down-regulated greater than 2-fold (LNCaP cells; RT-PCR array) | number of 96 apoptosis genes up-regulated greater than 2-fold (LNCaP cells; RT-PCR array) | CASP1 (Caspase 1) gene expression change (LNCaP cells; [2]) [fold] | CASP5 gene expression change (LNCaP cells; [2]) [fold] | CASP8 gene expression change (LNCaP cells; [2]) [fold] | CD27 gene expression change (LNCaP cells; [2]) [fold] | DAPK1 gene expression change (LNCaP cells; [2]) [fold] | HRK gene expression change (LNCaP cells; [2]) [fold] | NAIP gene expression change (LNCaP cells; [2]) [fold] | TNFRSF25 (DR3) gene expression change (LNCaP cells; [2]) [fold] | TNFSF8 gene expression change (LNCaP cells; [2]) [fold] | NAIP down-regulated (LNCaP cells; rounded from Table 1) [fold] | CTL-mediated lysis (ZR75-1 cells) | diminution of viability at any given time point [1] [%] | CEA-specific killing (BT549 cells) | CEA-specific killing (HCC1806 cells) | CTL-mediated lysis (MCF-7 cells) |
| --- | --- | --- | --- | --- | --- | --- | --- | --- | --- | --- | --- | --- | --- | --- | --- | --- | --- |
| C[C@]12CC[C@H](O)CC1=CC[C@@H]1[C@@H]2CC[C@]2(C)C(c3cccnc3)=CC[C@@H]12 [abiraterone] | 14 | 11 | −4.05 | −4.22 | −2.25 | −3.50 | −13.73 | −8.57 | −4.72 | −7.41 | −7.51 | 5 |  |  |  |  |  |
| CC/C(=C(\c1ccccc1)c1ccc(OCCN(C)C)cc1)c1ccccc1 [tamoxifen] |  |  |  |  |  |  |  |  |  |  |  |  | improved the CTL-mediated lysis | ≤ 10 | improved CEA-specific killing | improved CEA-specific killing | improved the CTL-mediated lysis |

— patent US20170306042A1, “IMMUNOGENIC MODULATION BY ENDOCRINE DEPRIVATION THERAPY IMPROVES SENSITIVITY OF TUMOR CELLS TO IMMUNE MEDIATED LYSIS” (The United States of America, as represented by the …, priority 2014, published 2017)
